Experimental data reported in PubChem BioAssay (NCI).
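Interpolation was linear, between the two tested concentrations surrounding the appropriate level; five concentrations were tested over 48 hours in 96-well plates. TGI: total growth inhibition.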

What was measured:
Assay in all cases: inhibition of tumour cell growth, NCI panel, 48 h
OVCAR-3 ovarian = test system: OVCAR-3 ovarian
IGROV1 ovarian = test system: IGROV1 ovarian
EKVX NSCLC = test system: EKVX NSCLC
DMS 273 small cell lung = test system: DMS 273 small cell lung
SF-268 CNS = test system: SF-268 CNS
HCC-2998 colon = test system: HCC-2998 colon
RPMI-8226 leukemia = test system: RPMI-8226 leukemia
NCI-H23 lung = test system: NCI-H23 lung
NCI-H226 lung = test system: NCI-H226 lung
SK-MEL-28 melanoma = test system: SK-MEL-28 melanoma
HCT-116 colon = test system: HCT-116 colon
RXF 393 renal = test system: RXF 393 renal
A498 renal = test system: A498 renal
SK-MEL-2 melanoma = test system: SK-MEL-2 melanoma
DLD-1 colon = test system: DLD-1 colon
LOX IMVI melanoma = test system: LOX IMVI melanoma
SF-295 CNS = test system: SF-295 CNS
SNB-19 CNS = test system: SNB-19 CNS
CCRF-CEM leukemia = test system: CCRF-CEM leukemia
HOP-62 NSCLC = test system: HOP-62 NSCLC
UACC-257 melanoma = test system: UACC-257 melanoma
OVCAR-8 ovarian = test system: OVCAR-8 ovarian
M14 melanoma = test system: M14 melanoma
NCI-H522 lung = test system: NCI-H522 lung
OVCAR-5 ovarian = test system: OVCAR-5 ovarian
ACHN renal = test system: ACHN renal
KM20L2 colon = test system: KM20L2 colon
U251 CNS = test system: U251 CNS
A549 NSCLC = test system: A549 NSCLC
NCI-H460 lung = test system: NCI-H460 lung
RXF-631 renal = test system: RXF-631 renal
OVCAR-4 ovarian = test system: OVCAR-4 ovarian
UACC-62 melanoma = test system: UACC-62 melanoma
MOLT-4 leukemia = test system: MOLT-4 leukemia
SR leukemia = test system: SR leukemia
SF-539 CNS = test system: SF-539 CNS
HT29 colon = test system: HT29 colon
HL-60(TB) leukemia = test system: HL-60(TB) leukemia
HOP-92 NSCLC = test system: HOP-92 NSCLC
CAKI-1 renal = test system: CAKI-1 renal
SK-OV-3 ovarian = test system: SK-OV-3 ovarian
HOP-18 NSCLC = test system: HOP-18 NSCLC
SK-MEL-5 melanoma = test system: SK-MEL-5 melanoma
SNB-75 CNS = test system: SNB-75 CNS
COLO 205 colon = test system: COLO 205 colon
SN12C renal = test system: SN12C renal
786-0 renal = test system: 786-0 renal
SW-620 colon = test system: SW-620 colon
M19-MEL melanoma = test system: M19-MEL melanoma
LXFL 529 NSCLC = test system: LXFL 529 NSCLC
HCT-15 colon = test system: HCT-15 colon
K-562 leukemia = test system: K-562 leukemia
MALME-3M melanoma = test system: MALME-3M melanoma
SNB-78 CNS = test system: SNB-78 CNS

Work on CC(=O)NC1C(OCc2ccccc2)OC(COC(=O)CCCCCNc2ccc([N+](=O)[O-])c3[nH]c4ccc(O)cc4c(=O)c23)C(O)C1OC(C)C(=O)N[C@@H](C)C(=O)N[C@H](CCC(=O)OCc1ccccc1)C(N)=O (some centres undefined) yielded a TGI (OVCAR-3 ovarian) of 6.24 µM, a TGI (IGROV1 ovarian) of 34 µM and a TGI (EKVX NSCLC) of 17.3 µM. The TGI (DMS 273 small cell lung) was 6.03 µM, the TGI (SF-268 CNS) was 9.41 µM and the TGI (HCC-2998 colon) was 10.9 µM. For the same compound, the TGI (RPMI-8226 leukemia) was 3.57 µM, the TGI (NCI-H23 lung) was 3.14 µM and the TGI (NCI-H226 lung) was 12.3 µM. It also gave a TGI (SK-MEL-28 melanoma) of 6.9 µM, a TGI (HCT-116 colon) of 1.34 µM and a TGI (RXF 393 renal) of 3.26 µM. It also gave a TGI (A498 renal) of 7.29 µM, a TGI (SK-MEL-2 melanoma) of 3.98 µM and a TGI (DLD-1 colon) of 10 µM. It also gave a TGI (LOX IMVI melanoma) of 10.7 µM, a TGI (SF-295 CNS) of 17 µM and a TGI (SNB-19 CNS) of 19.6 µM. For the same compound, the TGI (CCRF-CEM leukemia) was over 27.2 µM, the TGI (HOP-62 NSCLC) was 22.7 µM and the TGI (UACC-257 melanoma) was 6.38 µM. It also gave a TGI (OVCAR-8 ovarian) of 10.8 µM, a TGI (M14 melanoma) of 3.15 µM and a TGI (NCI-H522 lung) of 3.61 µM. It also gave a TGI (OVCAR-5 ovarian) of 3.81 µM, a TGI (ACHN renal) of 34.5 µM and a TGI (KM20L2 colon) of 0.893 µM. The TGI (U251 CNS) was 7.04 µM, the TGI (A549 NSCLC) was 6.92 µM and the TGI (NCI-H460 lung) was 4.33 µM. It also gave a TGI (RXF-631 renal) of 5.35 µM, a TGI (OVCAR-4 ovarian) of 15.9 µM and a TGI (UACC-62 melanoma) of 4.27 µM. It also gave a TGI (MOLT-4 leukemia) of 5.56 µM, a TGI (SR leukemia) of 0.657 µM and a TGI (SF-539 CNS) of 15.4 µM. For the same compound, the TGI (HT29 colon) was 3.09 µM, the TGI (HL-60(TB) leukemia) was over 52.2 µM and the TGI (HOP-92 NSCLC) was 3.61 µM. For the same compound, the TGI (CAKI-1 renal) was 4.21 µM, the TGI (SK-OV-3 ovarian) was 10.7 µM and the TGI (HOP-18 NSCLC) was 10.6 µM. For the same compound, the TGI (SK-MEL-5 melanoma) was over 20 µM, the TGI (SNB-75 CNS) was 13.2 µM and the TGI (COLO 205 colon) was 3.25 µM. It also gave a TGI (SN12C renal) of 18.7 µM, a TGI (786-0 renal) of 14.3 µM and a TGI (SW-620 colon) of 4.42 µM. The TGI (M19-MEL melanoma) was 33.3 µM, the TGI (LXFL 529 NSCLC) was 3.85 µM and the TGI (HCT-15 colon) was 3.67 µM. For the same compound, the TGI (K-562 leukemia) was over 100 µM, the TGI (MALME-3M melanoma) was 2.87 µM and the TGI (SNB-78 CNS) was 16.3 µM.
